The values below come from patent US20040143461A1, “Generating, viewing, interpreting, and utilizing a quantitative database of metabolites” (Lipomics Technologies, Inc., priority 2001, published 2004).

The test system of one data set is plasma lipids. Briefly: Lipomic assessment of CL316,243-treated NZO mice (trial 2), targeting graph versus rosiglitazone. Type of data set: in vivo, mouse. The source says: In a targeting display, quantitative metabolite data is compared from two samples that have been subjected to different treatments, for instance treatment with two different drugs or a drug and a test compound. The percentage or absolute changes (versus the standard sample) in the measured metabolites are plotted against each other on a Cartesian graph. This visual system facilitates the comparison of the global and individual metabolic effects of the two conditions being examined. If the two treatments (e.g., two drug treatments) affect the biological system in metabolically similar ways, the data points will fall along a line with a slope of 1, running through the origin (from the lower left to the upper right quadrant, in other words). Outlier data points, where one treatment or the other has a different effect on a metabolite, will lie in the upper left or lower right quadrants, and are therefore easily identified. […] The further off the “equivalent” slope a data point is, the greater the magnitude of differential effect that is being illustrated.
The metabolites found in the lower left and the upper right quadrants of the scatter plot (especially those where the X and Y values are similar) represent those likely affected by similar molecular mechanisms. […]

For data set [1] the following is noted: humans; cited from earlier work.
Data set [2] in a line: Body weight, glycemia, insulin and hepatic steatosis in rosiglitazone-treated (NZO×NON)F1 male mice. Type of data set: in vivo, mouse.
Data set [3] relates to inguinal adipose lipid metabolome. The protocol:
(§1) Mouse tissue and plasma samples were a generous donation to Lipomics Technologies from Dr. Edward Leiter of the Jackson Laboratory (Bar Harbor, Me.). Samples included the plasma, heart, liver and inguinal adipose of mice treated with pharmaceuticals or their corresponding controls.
(§2) In both studies, five treated and five control mice were used. Following the treatments and the killing of the mice, tissues and plasma were taken, chilled to −80° C. and shipped to the analysis laboratory at Lipomics Technologies in a frozen state.
The lipids from plasma and tissues were extracted in the presence of authentic internal standards by the method of Folch et al. (J. Biol. Chem. 226, 497-509, 1957) by homogenization in a fluid extractant consisting of chloroform:methanol (2:1 vol:vol). Plasma (200 μl), or 10 mg inguinal adipose tissue was used for each analysis. For each sample, an appropriate mass of internal standard was added. The internal standard compounds chosen may take many forms, but in one specific example the internal standards added to each plasma sample were: 1.75 μg of heptadecanoic 1-heptadecanoyl-2-lyso-phosphatidycholine (for lysophospholipids), 2.25 micrograms of N-pentadecenoyl-D-erythro-sphingosylphorylcholine (for sphingomyelin), 39.93 micrograms of 1,2 diheptadecanoylphosphatidylcholine (for phosphatidylcholine), 0.93 micrograms of 1,2-diheptadecenoylphosphatidylethanolamine (for phosphatidylethanolamine), 2.09 micrograms of pentadecaenoic acid (for free fatty acids), 32.93 micrograms of triheptadecaenoic acid (for triacylglycerides), 27.27 micrograms of cholesteryl heptadecanoate (for cholesterol esters) and 38.03 micrograms of stigmasterol (for free sterols).
(§3) The solution mixture consisting of sample, fluid extractant, and internal standards was homogenized by twelve strokes with a ground-glass homogenizer. Following homogenization, 1.8 ml of 0.01 M potassium chloride was added, and the solution was vigorously mixed. The organic fraction containing the lipids and the internal standards was separated from the polar fraction of the mixture by centrifugation. The lipid extract was removed from the mixture and concentrated under a stream of nitrogen in preparation for lipid class separation.
(§4) The separation of lipid classes was performed by preparative thin-layer chromatography (TLC), essentially as previously described (Watkins et al., Lipids 36:247-254, 2001). To remove any residual metal or other damaging contaminants on the TLC plates, each plate was washed prior to use. Washing the plates is a three-step process that involves impregnating each plate with ethylenediamine tetraacetic acid (EDTA) and rinsing the plates once with methanol and once with chloroform. Each plate is first impregnated with 1 mM EDTA, pH 5.5, by ascending development using the method of Ruiz (J. Lipid Res. 38, 1482-1489, 1997). After each plate was completely developed, it was dried in air overnight. Once dry, each plate was developed in methanol, dried, and developed in chloroform in the same direction as the development with EDTA. The washed plates were then dried in air. Just prior to use, each plate was activated by heating to 110° C. for 10 minutes.
To prepare the TLC chamber for chromatography, Whatman (Clifton, N.J.) filter paper was cut into 20×80-cm strips and wrapped around the inside wall of a 30×60×10-cm glass development chamber. One hundred milliliters of the appropriate mobile phase was added to the chamber, and the chambers were sealed and allowed to equilibrate. Chambers were considered equilibrated when the solvent front had completely ascended the filter paper.

Another data set deals with heart lipid metabolome. The protocol: as §1, §2
(§5) For the analysis of liver and heart tissues, 25 mg of tissue were placed in a ground glass homogenizer and internal standards were added. The internal standards for use in the analyses of these tissues may take many forms, but in this instance consisted of: 4.75 μg of N-pentadecenoyl-D-erythro-sphingosylphorylcholine; 74.78 μg of 1,2 diheptadecanoylphosphatidylcholine; 33.57 μg of 1,2-diheptadecenoylphosphatidylserine (for phosphatidylserine); 24.13 μg of 1,2-diheptadecenoylphosphatidylethanolamine; 13.38 μg of 1,1′,2,2′-tetraheptadecaenoyl cardiolipin (for cardiolipin); 1.12 μg of pentadecaenoic acid; 27.82 μg of triheptadecaenoic acid; 1.56 μg of cholesteryl heptadecanoate; and 27.70 μg of stigmasterol.
as §3, §4
(§6) To prepare the TLC chamber for chromatography, Whatman (Clifton, N.J.) filter paper was cut into 20×80-cm strips and wrapped around the inside wall of a 30×60×10-cm glass development chamber. One hundred milliliters of the appropriate mobile phase was added to the chamber, and the chambers were sealed and allowed to equilibrate. Chambers were considered equilibrated when the solvent front had completely ascended the filter paper. The mobile phase employed for the separation of phospholipid classes (lyso-phospholipids, sphingomyelin, phosphatidylcholine, phosphatidylserine, phosphatidylethanolamine and cardiolipin) was a modification of the solvent system described by Holub and Skeaf (“Nutritional regulation of cellular phosphatidylinositol,” in Meth. Enzym., ed. Conn (Academic Press, Inc., Orlando), pp. 234-243, 1987) consisting of chloroform/methanol/acetic acid/water (100:67:7:4, by vol).
(§7) For the separation of neutral lipid classes (free fatty acids, free sterols, triacylglycerides and cholesterol esters), a solvent system consisting of petroleum ether/diethyl ether/acetic acid (80:20:1, by vol) was used (Mangold, Thin Layer Chromatography— A Laboratory Handbook (Springer-Verlag, New York), 1969).

The next data set concerns liver lipid metabolome. Conditions: treated mice. The protocol: as §1, §2, §5, §3, §4, §6, §7
[4] abbreviates: amount in parentheses after the % greater.
[5] abbreviates: treated vs control mice, FIG. 5.

Read-outs that look alike come from different tables or passages of the source.

Regarding `C[C@H](Cc1ccc2c(c1)OC(C(=O)[O-])(C(=O)[O-])O2)NC[C@H](O)c1cccc(Cl)c1.[Na+].[Na+]` [CL316,243], in the data set on plasma lipids (targeting graph FIG. 6, NZO mice, 0.001% in chow, four weeks), the “similarity of effect on plasma lipids to rosiglitazone” value is listed as “largely validated”. The “increase in the de novo synthesis of fatty acids” value with plasma lipids (targeting graph FIG. 6, upper left quadrant metabolites (16:1n7, 18:1n7, 20:3n9)) was “not induced”.
In the case of `CN(CCOc1ccc(CC2SC(=O)NC2=O)cc1)c1ccccn1` (stereo not drawn) [rosiglitazone], the weight gain result in data set [1] is given as “often accompanied by weight gain”. Besides, in data set [2] (markedly-obese (NZO×NON)F1 male mice), the body weight result was “increase in body weight”. In data set [2] (treated animals), the hepatic steatosis result is recorded as “severe hepatic steatosis”. In addition, in data set [3] (setting [4]), the “docosahexaenoic acid in inguinal fat triacylglycerides, greater concentration than control” value was 7,000 nmol/g and the “eicosapentaenoic acid in inguinal fat triacylglycerides, greater concentration than control” value is 4,100 nmol/g. Besides, in data set [3] (amount in parentheses after the % more), the “a-linolenic acid in inguinal fat triacylglycerides, more than control” value is recorded as 24,300 nmol/g. In addition, in data set [3] (treated mice), the “concentration of total n-3 fatty acids in the inguinal fat triacylglycerides” value was 71,260 nmol/g and the “inguinal fat triacylglyceride content” value was 9,628 μmol/g. In addition, the “inguinal fat free fatty acids” value in data set [3] (treated mice, controls 9,900 nmol/g) is given as 13,370 nmol/g. Further, the “concentration of n-7 fatty acids in inguinal fat triacylglycerides” value in data set [3] (treated mice, untreated 204 μmol/g) turned out to be 303 µmol/g. Further, in data set [3] (treated vs control mice), the “inguinal fat free fatty acids, more than controls” value came out at 35% and the “inguinal fat triacylglyceride content, lower than controls” value is recorded as 5.7%. In data set [3] (setting [5]), the “a-linolenic acid in inguinal fat triacylglycerides, more than control” value is on record as 84%; the “docosahexaenoic acid in inguinal fat triacylglycerides, greater concentration than control” value turned out to be 612%; the “eicosapentaenoic acid in inguinal fat triacylglycerides, greater concentration than control” value was determined as 522%. In addition, in data set [3] (treated vs untreated mice), the “total concentration of n-6 fatty acids in inguinal fat, higher than untreated” value is given as “less than 3%” and the “total n-3 fatty acids in inguinal fat triacylglycerides, greater than in untreated mice” value is recorded as 120%. Besides, the “14:0 fatty acid associated with heart sphingomyelin, more than the control sample” value with heart lipid metabolome (FIG. 5 heat map, test sample vs control sample) came out at 80%. In addition, the “Docosahexaenoic acid (22:6n3) in heart cardiolipin” value in the data set with heart lipid metabolome (treated mice, control 2,200 nmol/g) is 950 nmol/g. Further, in the data set on heart lipid metabolome (treated mice, control 4,550 nmol/g), the “linoleic acid (18:2n6) in heart cardiolipin” value is 8,850 nmol/g. The “mean cardiolipin content of hearts” value in the data set with heart lipid metabolome (treated mice, untreated 2,500 nmol/g) was 3,000 nmol/g. For the same molecule, the “average concentration of total free fatty acids in the heart” value in the data set on heart lipid metabolome (treated mice, untreated 5,100 nmol/g) was 2,500 nmol/g. The “heart free fatty acids of the saturated n-3, n-6, and n-9 families, lower than in untreated mice” value in the data set with heart lipid metabolome (treated vs untreated mice, FIG. 7) is given as “approximately 50%”. For the same molecule, in the data set with liver lipid metabolome (untreated 1,890 nmol/g), the liver sphingomyelin concentration is 1,180 nmol/g. For the same molecule, the Total hepatic triacylglycerides in the data set with liver lipid metabolome (untreated 81,300 nmol/g) is on record as 150,400 nmol/g.
